Test results from patent publication US11590134B2, “Aminopyrimidine amide autophagy inhibitors and methods of use thereof” (Deciphera Pharmaceuticals, LLC, priority 2019, dated 2023).

Key:
ULK2 kinase = molecular target: T1, ULK2 kinase (Homo sapiens, UniProt Q8IYT8); assay: Biochemical assay for ULK2 (coupled pyruvate kinase/lactate dehydrogenase assay); conditions: 9.7 nM ULK2 (residues 1-306), myelin basic protein substrate, 1 mM ATP; read-out: ULK2.2
T1 construct: purchased Eurofins 14-772
Protocol: Activity of ULK2 kinase was determined spectroscopically using a coupled pyruvate kinase/lactate dehydrogenase assay that continuously monitors the ATP hydrolysis-dependent oxidation of NADH (e.g., Schindler et al. Science (2000) 289: 1938-1942). Assays were conducted in 384-well plates (100 uL final volume) using 9.7 nM ULK2 (Eurofins CAT #14-772), 0.25 mg/mL myelin basic protein, 1.5 units pyruvate kinase, 2.1 units lactate dehydrogenase, 1 mM phosphoenol pyruvate, 0.28 mM NADH and 1 mM ATP in assay buffer (100 mM Tris, pH 7.5, 15 mM MgCl2, 0.5 mM DTT, 0.1% octyl-glucoside, 0.002% (w/v) BSA, and 0.002% Triton X-100). Inhibition of ULK2 was measured by adding serial diluted test compound (final assay concentration of 1% DMSO). A decrease in absorption at 340 nm was monitored continuously for 6 hours at 30° C. on a multi-mode microplate reader (BioTek). The reaction rate was calculated using the 2-3 h time frame. The reaction rate at each concentration of compound was converted to percent inhibition using controls (i.e. reaction with no test compound and reaction with a known inhibitor) and IC50 values were calculated by fitting a four-parameter sigmoidal curve to the data using Prism (GraphPad software).

[1] = test system: ULK kinase substrate ATG13 (phospho-Serine 318 ATG13) in MiaPaCa-2 cells; assay: pATG13 ELISA in mutant KRas MiaPaCa-2 cells in combination with trametinib; format: cell-based; conditions: MiaPaCa-2 human pancreatic cancer cells, with 250 nM trametinib, overnight
Protocol: (§1) MiaPaCa-2 human pancreatic cancer cells (10000 cells/well) were added to a 384-well tissue-culture treated plate in 50 μL of pre-warmed DMEM medium supplemented with 10% characterized fetal bovine serum (Invitrogen, Carlsbad, Calif.), 100 units/mL penicillin G, 100 μg/mL streptomycin, and 2.5% Horse Serum and allowed to grow overnight at 37° C., 5% CO2, and 95% humidity. The following day, 10 μL of media containing trametinib or DMSO as a control was added to wells. The final concentration of trametinib in wells was 250 nM. A dose response of a test compound (0.6 μL per well) was added. DMSO (0.6 μL) was added to control wells. The plate was briefly shaken to mix wells and then incubated at 37° C. overnight. The next day, the media was aspirated and cells were washed with Dulbecco's Phosphate Buffered Saline (Gibco). Cells were lysed using MPER lysis buffer (Pierce, Rockford, Ill.) containing Halt Phosphatase and Protease Inhibitors (Pierce, Rockford, Ill.) and Phosphatase inhibitor cocktail 2 (Sigma, St. Louis, Mo.) at 4° C. for 10 minutes with shaking.
(§2) Cellular levels of phospho-Serine 318 ATG13 (pATG13) were measured via an ELISA method. Total ATG13 Antibody (Cell Signaling Cat #13273) was used to coat the wells. The plate was incubated at 4° C. overnight and washed with ELISA wash buffer (Biolegend Cat #421601). The wells were then blocked with assay diluent (Biolegend Cat #421203) for 1 hour at room temperature. Plate wells were washed with ELISA wash buffer. Cell lysate was added to wells and incubated at room temperature for 2 hours. Plate wells were washed with ELISA wash buffer. Biotinylated pS318-ATG13 antibody (Rockland Immunochemicals Cat #600-401-C49) was diluted in assay diluent and added to each well and incubated at room temperature for 1 hour. Plate wells were washed with ELISA wash buffer. Streptavidin linked to horseradish peroxidase (Thermo Fisher Cat #21140) was diluted in assay diluent and added to each well and incubated at room temperature for 1 hour. Plate wells were washed with ELISA wash buffer. High sensitivity TMB substrate (Biolegend Cat #421101) was added to each well and incubated at room temperature for 20 minutes. The reaction was stopped with 2N Sulfuric Acid. The plate was analyzed at on a plate reader measuring absorbance at 450 nm and 540 nm (background). Signal was calculated by first subtracting the background absorbance at 540 nm from the absorbance at 450 nm for each well. Next, the background corrected absorbance at 450 nm from blank wells was subtracted from test wells. Data was compared to control wells to determine % ATG13 phosphorylation. GraphPad Prism was used to calculate IC50 values.

[2] = test system: ULK kinase substrate ATG13 (phospho-Serine 318 ATG13) in A549 cells; assay: pATG13 ELISA in mutant KRas A549 cells in combination with trametinib; format: cell-based; conditions: A549 (KRAS mutant) human lung cancer cells, with 250 nM trametinib, overnight
Protocol: as §1, with “A549 (KRAS mutant)” for “MiaPaCa-2”, “lung” for “pancreatic”, “(6,000” for “(10000”, “G, and” for “G,”, “streptomycin” for “streptomycin, and 2.5% Horse Serum”
as §2

LRRK2 kinase = molecular target: T2, LRRK2 kinase (Homo sapiens, UniProt Q5S007); assay: Biochemical assay for LRRK2 (coupled pyruvate kinase/lactate dehydrogenase assay); conditions: 26.4 nM LRRK2 (residues 970-2528), peptide substrate, 1 mM ATP
T2 construct: (residues 970-2528; ID NO; 4); purchased Thermo Fisher
T2 sequence (Q5S007 with tags, fused parts or gaps): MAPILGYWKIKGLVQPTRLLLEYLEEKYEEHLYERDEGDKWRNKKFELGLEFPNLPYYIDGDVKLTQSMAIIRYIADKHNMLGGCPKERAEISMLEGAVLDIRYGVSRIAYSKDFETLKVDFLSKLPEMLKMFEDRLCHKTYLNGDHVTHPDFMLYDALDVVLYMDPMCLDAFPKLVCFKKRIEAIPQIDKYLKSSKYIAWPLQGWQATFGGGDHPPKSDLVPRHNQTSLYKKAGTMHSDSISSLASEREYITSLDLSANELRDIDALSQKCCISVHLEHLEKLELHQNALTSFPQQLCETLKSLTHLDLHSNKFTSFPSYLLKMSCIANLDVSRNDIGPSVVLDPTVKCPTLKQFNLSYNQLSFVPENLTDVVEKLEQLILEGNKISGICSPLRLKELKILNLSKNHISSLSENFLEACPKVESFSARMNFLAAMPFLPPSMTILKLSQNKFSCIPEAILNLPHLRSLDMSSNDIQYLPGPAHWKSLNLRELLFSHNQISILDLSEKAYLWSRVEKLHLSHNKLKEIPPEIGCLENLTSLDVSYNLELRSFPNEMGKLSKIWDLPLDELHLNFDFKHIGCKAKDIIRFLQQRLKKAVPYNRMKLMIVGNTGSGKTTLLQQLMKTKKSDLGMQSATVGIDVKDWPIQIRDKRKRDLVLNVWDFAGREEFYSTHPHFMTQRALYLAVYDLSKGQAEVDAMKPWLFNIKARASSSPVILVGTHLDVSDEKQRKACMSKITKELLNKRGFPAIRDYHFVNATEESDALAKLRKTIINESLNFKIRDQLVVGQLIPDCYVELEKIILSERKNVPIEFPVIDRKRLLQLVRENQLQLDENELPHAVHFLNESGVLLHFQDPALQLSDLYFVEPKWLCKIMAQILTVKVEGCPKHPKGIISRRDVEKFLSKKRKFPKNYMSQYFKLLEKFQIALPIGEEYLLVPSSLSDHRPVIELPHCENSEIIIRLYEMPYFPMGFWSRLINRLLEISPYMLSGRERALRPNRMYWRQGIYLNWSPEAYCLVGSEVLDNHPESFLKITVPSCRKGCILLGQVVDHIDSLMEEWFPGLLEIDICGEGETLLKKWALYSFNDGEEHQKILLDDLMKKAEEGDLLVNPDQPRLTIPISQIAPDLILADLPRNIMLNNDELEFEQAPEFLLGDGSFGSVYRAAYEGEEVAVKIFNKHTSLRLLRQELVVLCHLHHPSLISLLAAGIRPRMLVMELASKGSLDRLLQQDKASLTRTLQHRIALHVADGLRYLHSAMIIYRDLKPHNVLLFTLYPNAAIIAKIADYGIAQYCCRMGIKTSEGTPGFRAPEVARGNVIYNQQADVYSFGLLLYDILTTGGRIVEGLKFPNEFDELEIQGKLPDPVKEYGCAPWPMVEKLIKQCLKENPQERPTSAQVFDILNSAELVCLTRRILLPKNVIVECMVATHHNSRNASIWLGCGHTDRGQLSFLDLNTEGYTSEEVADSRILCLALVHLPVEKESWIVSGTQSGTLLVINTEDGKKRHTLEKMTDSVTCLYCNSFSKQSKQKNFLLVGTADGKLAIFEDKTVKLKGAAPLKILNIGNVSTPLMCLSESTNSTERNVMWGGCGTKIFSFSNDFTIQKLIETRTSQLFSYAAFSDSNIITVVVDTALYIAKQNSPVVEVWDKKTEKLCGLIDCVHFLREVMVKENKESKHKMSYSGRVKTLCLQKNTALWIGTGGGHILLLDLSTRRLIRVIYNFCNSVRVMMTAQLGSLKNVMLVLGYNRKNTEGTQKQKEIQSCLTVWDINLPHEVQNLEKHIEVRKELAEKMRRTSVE
Protocol: Activity of LRRK2 kinase was determined spectroscopically using a coupled pyruvate kinase/lactate dehydrogenase assay that continuously monitors the ATP hydrolysis-dependent oxidation of NADH (e.g., Schindler et al. Science (2000) 289: 1938-1942). Assays were conducted in 384-well plates (100 uL final volume) using 26.4 nM LRRK2 (Thermo Fisher), 0.1 mM peptide substrate (RLGRDKYKTLRQIRQ (SEQ ID NO: 6)), 1.5 units pyruvate kinase, 2.1 units lactate dehydrogenase, 1 mM phosphoenol pyruvate, 0.28 mM NADH and 1 mM ATP in assay buffer (100 mM Tris, pH 7.5, 15 mM MgCl2, 0.5 mM DTT, 0.004% (w/v) BSA, and 0.004% Triton X-100). Inhibition of LRRK2 was measured by adding serial diluted test compound (final assay concentration of 1% DMSO). A decrease in absorption at 340 nm was monitored continuously for 6 hours at 30° C. on a multi-mode microplate reader (BioTek). The reaction rate was calculated using the 2-3 h time frame. The reaction rate at each concentration of compound was converted to percent inhibition using controls (i.e. reaction with no test compound and reaction with a known inhibitor) and IC50 values were calculated using software routines in Prism (GraphPad software).

T1 sequence (Q8IYT8 with tags, fused parts or gaps): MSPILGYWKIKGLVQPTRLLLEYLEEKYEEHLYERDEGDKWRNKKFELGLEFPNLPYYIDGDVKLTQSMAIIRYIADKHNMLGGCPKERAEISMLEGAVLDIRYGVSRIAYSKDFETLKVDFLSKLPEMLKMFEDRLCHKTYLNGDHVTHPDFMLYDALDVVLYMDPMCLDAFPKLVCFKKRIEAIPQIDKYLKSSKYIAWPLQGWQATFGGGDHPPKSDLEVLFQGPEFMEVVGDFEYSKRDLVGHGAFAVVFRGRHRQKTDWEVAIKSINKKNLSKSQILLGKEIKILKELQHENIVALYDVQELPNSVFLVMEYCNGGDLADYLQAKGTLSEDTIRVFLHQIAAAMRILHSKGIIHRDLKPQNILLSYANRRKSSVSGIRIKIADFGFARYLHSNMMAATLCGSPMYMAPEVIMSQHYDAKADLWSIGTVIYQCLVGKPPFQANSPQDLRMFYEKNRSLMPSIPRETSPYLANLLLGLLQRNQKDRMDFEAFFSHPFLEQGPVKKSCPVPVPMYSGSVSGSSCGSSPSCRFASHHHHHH

Structure (SMILES)	IC50 (ULK2 kinase) [µM]	IC50 [1] [µM]	IC50 [2] [µM]	IC50 (LRRK2 kinase) [µM]
CC(C)c1cc(N2CCN(C)CC2)ccc1Nc1ncc(Br)c(NCCCNC(=O)C2CCC2)n1 [Example 8]	0.1 to 0.5	0.1 to 0.3	0.1 to 0.3	0.6 to 20
CN1CCN(c2ccc(Nc3ncc(C(F)(F)F)c(NCCCNC(=O)C4CCC4)n3)c(C3CC3)c2)CC1 [Example 14]	0.001 to 0.025	0.01 to 0.1	0.01 to 0.1	0.1 to 0.3
COc1cc(N2CCN(C)CC2)ccc1Nc1ncc(C(F)(F)F)c(NCCCNC(=O)C2CCC2)n1 [Example 4]	0.025 to 0.1	0.1 to 0.3	0.1 to 0.3	0.001 to 0.1
Cc1cc(N2CCN(C)CC2)ccc1Nc1ncc(C(F)(F)F)c(NCCCNC(=O)C(C)(C)C)n1 [Example 12]	0.1 to 0.5	0.1 to 0.3	0.3 to 0.6	0.1 to 0.3
CC(C)c1cc(N2CCN(C)CC2)ccc1Nc1ncc(C(F)(F)F)c(NCCCNC(=O)C2CCC2)n1 [Example 3]	0.025 to 0.1	0.01 to 0.1	0.1 to 0.3	0.001 to 0.1
